Laboratory results reported in US10471118B2, “Retinylamine derivitives for treatment of ocular disorders” (CASE WESTERN RESERVE UNIVERSITY, priority 2014, dated 2019).
“Also recorded” adds a separate entry of the source.

Assays:
[1] = system: Abca4^−/−Rdh8^−/− mice; experiment: Light-induced retinal degeneration in Abca4-/-Rdh8-/- mice (OCT, ERG, histology), Example 1; format: in vivo, mouse; settings: for protection against light-induced retinal degeneration (ONL thickness from OCT): 0.875 μmol per mouse oral gavage 16 h before 10,000 lux 1 h, OCT after 3 days in dark
Protocol: Abca4^−/−Rdh8^−/− double knockout mice were housed in the animal facility at the School of Medicine, Case Western Reserve University, where they were maintained under either complete darkness or a 12-h light (−10 1×) and 12-h dark cycle. All retinylamine tested were dissolved or suspended in 100 μl of vegetable oil with less than 10% (v/v) DMSO and were administered by oral gavage with a 22-gauge feeding needle. Experimental manipulations in the dark were done under dim red light transmitted through a Kodak No. 1 safelight filter (transmittance >560 nm). All animal procedures and experiments were approved by the Case Western Reserve University Animal Care Committees and conformed to recommendations of the American Veterinary Medical Association Panel on Euthanasia and the Association of Research for Vision and Ophthalmology.
After dark adaptation for 48 h, one or two Abca4^−/−Rdh8^−/− mice with pupils dilated by 1% tropicamide were exposed to fluorescent light (10,000 1×; 150-W spiral lamp, Commercial Electric) for 60 min in a white plastic bucket (Papersmith) with food and water and then kept in the dark. Histological and biochemical experiments were performed 3 days after exposure.
Ultra-high resolution spectral-domain OCT (SD-OCT; Bioptigen) and Heidelberg Retinal Angiograph II SLO (Heidelberg Engineering) were used for in vivo imaging of mouse retinas. Mice were anesthetized by intraperitoneal injection of a cocktail (20 μl g-1 body weight) containing ketamine (6 mg ml-1) and xylazine (0.44 mg ml-1) in 10 mM sodium phosphate, pH 7.2, and 100 mM NaCl. Pupils were dilated with 1% tropicamide. Four pictures acquired in the B-scan mode were used to construct each final averaged SD-OCT image.
All ERG procedures were performed by published methods. For single-flash recording, the duration of white-light flash stimuli (from 20 μs to 1 ms) was adjusted to provide a range of illumination intensities (from −3.7 to 1.6 log cd s m-2). Three to five recordings were made at sufficient intervals between flash stimuli (from 3 s to 1 min) to allow recovery from any photobleaching effects.
Mouse eyes were fixed for 24 h by rocking in a fixation solution (2 ml/eye) containing 4% paraformaldehyde and 1% glutaraldehyde in PBS. The tissue was processed through a series of ethanols, xylenes, and paraffins in a Tissue-Tek VIP automatic processor (Sakura, Torrance, Calif., USA), and 5-μm sections were cut using a Microm HM355 paraffin microtome (Thermo Fisher Scientific, Waltham, Mass., USA) and stained with hematoxylin and eosin (H&E) stain. Images of stained sections were captured by a Leica CTR6000 microscope attached to a CCD camera (Micropublisher 5.0 RTV, Qimaging Surray BC, Canada).
The effectiveness of the retinylamine derivatives on preventing light-induced retinal degeneration was tested in four-week old Abca4^−/−Rdh8^−/− mice according to the experimental scheme depicted in FIG. 1. After the mice were dark-adapted for 48 h, the drugs were gavaged at a dose 0.875 μmol/per mouse, which was selected based on the half protection dose for retinylamine after a dosing experiment, FIG. 2. Retinylamine was tested as a control at the same dose. […] Retinal integrity was assessed using optical coherence tomography (OCT). […] The mice without any treatment had photoreceptor cells completely destroyed after light illumination, and were used as a negative control. The retinal integrity was determined based on the thickness of outer nuclear layer (ONL) of the retinas measured from the OCT images. Reduced ONL thickness signifies the decreasing number of photoreceptors and retinal degeneration.

[2] = Storage stability of PEG-GFL-NH-Ret conjugate in solid form; format: physicochemical; settings: room temperature, same condition
Source text: The number and weight-average molecular weights of polymer conjugate was 21 and 22 kDa (Mw/Mn=1.05), as determined by size exclusion chromatography. […] The structure of PEG-GFL-NHRet was preserved during the storage in solid form more than 6 months at room temperature, while free Ret-NH2 decomposed in less than 1 week under the same condition.

[3] = Pharmacokinetics of PEG-GFL-NH-Ret in C57BL mice (N-retinylamides in liver and eye); format: in vivo; settings: 1 mg equivalent Ret-NH2 per mouse oral, especially first 8 h after gavage
Protocol: Female C57BL mice (4-week-old) were randomly divided into two dosing groups. One group of mice was gavaged with one dose of Ret-NH2 (1 mg per mouse, dissolved in DMSO), and the other group of mice was also gavaged once with PEG-GFL-NH-Ret (17.5 mg per mouse, equivalent to 1 mg Ret-NH2 per mouse). Then at each predetermined time point (0, 4 h, 8 h, 24 h, 48 h and 72 h after drug administration), 6 mice were sacrificed. The liver and eye balls were collected to determine tissue N-retinylamide content for pharmacokinetic analysis. A portion of the liver tissue (ca. 0.5 g) was weighed, homogenized in 2 mL 1:1 ethanol:PBS solution and the eye balls were similarly processed. N-Retinylamides were extracted in 4 mL hexane, concentrated, and reconstituted to a 300 μL volume. Normal-phase HPLC (Agilent-Zorbax SIL; 5 μm; 4.5×250 mm; flow rate of 1.4 mL/min; 80:20 hexane:ethyl acetate (v:v); detection at 325 nm) was utilized to determine N-retinylamide concentration in these tissues.

[4] = system: Abca4^−/−Rdh8^−/− mice; experiment: Preventing light-induced retinal degeneration with PEG-GFL-NH-Ret in Abca4-/-Rdh8-/- mice; format: in vivo, mouse
Protocol: Abca4^−/−Rdh8^−/− mice (male and female, 4-week-old, 4-5 mice in each treatment group) were kept in the dark for 48 h before each experiment. Then free Ret-NH2 (0.5 mg, 1.75 μmol) per mouse) or conjugate PEG-GFL-NH-Ret (8.75 mg per mouse, equivalent to 0.5 mg free Ret-NH2 per mouse) was administered by gastric gavage. Mice were illuminated with 10,000 lux light for 30 min at 1 day, 3 days or 6 days after their gavage, and then kept in the dark for 7 days when final retinal evaluations were performed. […] Dark-adapted mice were anesthetized by the same protocol used for OCT recordings. All experimental procedures were performed under a safety light. A contact lens electrode was placed on the eye, and a reference electrode and ground electrode were placed underneath the skin between the two ears and in the tail, respectively. ERGs were recorded with the universal electrophysiologic system UTAS E-3000 (LKC Technologies, Inc., Gaithersburg, Md.). Light intensity calibrated by the manufacturer was computer-controlled. Mice were placed in a Ganzfeld dome, and scotopic responses to flash stimuli were obtained from both eyes simultaneously.

## CC1=C(/C=C/C(C)=C/C=C/C(C)=C/CNC(=O)[C@@H](N)Cc2ccccc2)C(C)(C)CCC1 [RF, (S)-2-amino-N-((2E,4E,6E,8E)-3,7-dimethyl-9-(2,6,6-trimethylcyclohex-1-en-1-yl)nona-2,4,6,8-tetraen-1-yl)-3-phenylpropanamide]
[1]
  protection against light-induced retinal degeneration (ONL thickness from OCT): low protecting effect
[1]; listed as phenylalanyl
  protection against light-induced retinal degeneration (ONL thickness from OCT): little protecting efficacy

## CC1=C(/C=C/C(C)=C/C=C/C(C)=C/CNC(=O)[C@@H](NC(=O)CN)C(C)C)C(C)(C)CCC1 [RVG, (S)-2-(2-aminoacetamido)-N-((2E,4E,6E,8E)-3,7-dimethyl-9-(2,6,6-trimethylcyclohex-1-en-1-yl)nona-2,4,6,8-tetraen-1-yl)-3-methylbutanamide]
[1]; 0.875 μmol per mouse 16 h prior to light illumination, evaluated 7 days later
  average scotopic a wave ERG peak amplitudes: virtually the same as those without light-illumination (NLI)
[1]
  protection against light-induced retinal degeneration (ONL thickness from OCT): significant improvement on preventing light-induced retinopathy over retinyl amine
[1]; treated before intense light exposure, 7 days after light exposure
  retina structure by histology (H&E): maintained intact retina structure; also recorded: protected Abca4^−/−Rdh8^−/− retina from light damage

## CC1=C(/C=C/C(C)=C/C=C/C(C)=C/CN)C(C)(C)CCC1 [Ret-NH2, (2E,4E,6E,8E)-3,7-dimethyl-9-(2,6,6-trimethylcyclohex-1-en-1-yl)nona-2,4,6,8-tetraen-1-amine]
[2]
  time to decomposition on storage: less than 1 week
[3]
  liver concentrations of N-retinylamides: much higher liver concentrations of N-retinylamides than those treated with the conjugate
[4]; 0.5 mg Ret-NH2 equivalent per mouse gavaged 1 day before light exposure
  protection against light-induced retinal degeneration by OCT: effective protection against light-induced retinal degeneration
[4]; 0.5 mg Ret-NH2 equivalent per mouse gavaged 3 days before light exposure
  protection against light-induced retinal degeneration by OCT: did not maintain such protection
[4]; 0.5 mg Ret-NH2 equivalent per mouse gavaged 6 days before light exposure
  protection against light-induced retinal degeneration by OCT: No protective effect
[4]; gavaged 1 day before light exposure
  ONL thickness from OCT images: thickness comparable to that of mice without light illumination
[4]; gavaged 3 days before strong light exposure
  ERG responses: significant loss of ERG activity
[4]; gavaged 3 days before strong light illumination
  ONL thickness from OCT images: significantly reduced
